The term IC50 denotes the concentration that inhibits the measured activity by half.

Assay [1] addresses T1, human CB1 receptor (Homo sapiens, UniProt P21554).
T1 construct: expressed in transfected cells; host or cells: HEK293
In words: bioSensAll GAPL-Gi2 BRET biosensor assay (antagonism of CP-55,940). The format is cell-based. Conditions: HEK293 cells transfected with hCB1 and GAPL-Gi2 biosensor, EC75 of CP-55,940 (0.1 nM), overnight incubation, read-out: CB1 wt Gi2 IC50. As to the method:
(§1) Using polyethylenimine (PEI) transfection agent, HEK293 cells were transfected in suspension with the human CB1 or CB1b receptor and one of the following bioSensAll® assays: GAPL-Gi2, or β-arrestin plasma membrane (PM) translocation biosensor (+GRK2). Cells were directly seeded in 96-well plates immediately following transfection.
(§2) Cells were incubated with coelenterazine (luciferase substrate) and different test compounds prior to the measurement of BRET signals.
i) GAPL sensors are used to monitor the activation of heterotrimeric G proteins at the plasma membrane upon receptor stimulation. Specifically, these multimolecular BRET sensors detect the plasma membrane recruitment of proteins that interact with active Ga subunits in a G protein family-selective manner. G protein activation following receptor stimulation generally leads to an increase in the BRET signal.
(§3) HEK293 cells were maintained in Dulbecco's Modified Eagle Medium (DMEM) (Wisent; cat #319-030-CL: without sodium pyruvate, with 4.5 g/L glucose, without L-glutamine) supplemented with 1% penicillin-streptomycin (Wisent; cat #450-201-EL) and 2 or 10% fetal bovine serum (Wisent cat #090150).
(§4) HEK293 cells were co-transfected with hCB1 or hCB1b and one of the above-listed bioSensAll® assays. For each transfection condition: • the total amount of transfected DNA was kept constant at 1 μg per mL of cell culture to be transfected; whenever necessary, salmon sperm DNA (Invitrogen, cat #15632011) was used as ‘carrier’ DNA to supplement plasmid DNA (i.e., biosensor and receptor); • the PEI (polyethylenimine 25 kDa linear, PolyScience, cat #23966) to DNA ratio (ug:ug) was fixed at 3:1.
(§5) Transfections were carried out as follows: • DNA and PEI were first diluted separately in 150 mM NaCl. The volume of the diluent in each tube corresponds to 5% of the cell culture volume to be transfected. • Once DNA and PEI were diluted, the PEI-containing solution was added to the DNA solution and the DNA/PEI mixture immediately vortexed for 5 seconds. • The DNA/PEI mixture was incubated for at least 20 minutes at room temperature to allow for the formation of DNA/PEI complexes. • During the incubation, HEK293 cells were detached, counted and re-suspended in culture medium (composition specified above). • At the end of the incubation period, the DNA/PEI mixture was added to the cells. • Cells were finally distributed in 96-well plates (White Opaque 96-well/Microplates, Greiner, cat #655083 or CulturPlate-96, White Opaque 96-well Microplate, PerkinElmer, cat #6005688) at a density of 30 000 cells per well.
(§6) At ˜48 hours post-transfection: • Using 450-Select TS Biotek plate washer, culture medium was aspirated and replaced with 100 μl of Hank's Balanced Salt Solution buffer (HBSS) (Wisent, cat #319-067CL: without red phenol; with sodium bicarbonate, with calcium and magnesium, with HEPES) per well. This process was performed a total of two times (i.e., 2 washes). • After the washing step, the HP D300 digital dispenser (Tecan) was used to inject increasing doses (12) of test compounds (ranging from 0-600 nM) to wells. Three to five minutes later, an EC75 of CP-55,940 (0.1 nM for GAPL-Gi2 assay; 100 nM for β-arrestin PM translocation biosensor (+GRK2)) was added to columns 2-12 of each 96-well plate.
(§7) BRET signals were determined by calculating the ratio of light emitted by GFP-acceptor (515 nm) over light emitted by luciferase-donor (400 nm). All BRET ratios were standardized using the equation below with pre-established BRET values for positive and negative controls. The standardized BRET ratio is referred to as universal BRET (uBRET).
(§8) Resulting dose-response curves were fitted using the four-parameter logistic non-linear regression model in GraphPad Prism 9.
(In general: In BRET a luciferase serves as donor, and the signal depends on an acceptor being close.)

In assay [2] the target is T1, human CB1 receptor. The assay can be described thus: bioSensAll β-arrestin plasma membrane translocation BRET biosensor (+GRK2) assay (antagonism of CP-55,940). The format is cell-based. To be noted: HEK293 cells transfected with hCB1 and β-arrestin PM translocation biosensor (+GRK2), EC75 of CP-55,940 (100 nM), overnight incubation, read-out: CB1 wt βarr2 IC50. As to the method:
as §1, §2
ii) The multimolecular β-arrestin membrane recruitment biosensors allow for real-time spatio-temporal monitoring of β-arrestin 1 and β-arrestin 2 following GPCR activation. Specifically, these β-arrestin sensors were designed to detect the recruitment of proteins to the plasma membrane (β-arrestin PM) with localization to compartment resulting in an increased BRET signal.
as §3, §4, §5, §6, §7, §8

T1 sequence (P21554 whole entry): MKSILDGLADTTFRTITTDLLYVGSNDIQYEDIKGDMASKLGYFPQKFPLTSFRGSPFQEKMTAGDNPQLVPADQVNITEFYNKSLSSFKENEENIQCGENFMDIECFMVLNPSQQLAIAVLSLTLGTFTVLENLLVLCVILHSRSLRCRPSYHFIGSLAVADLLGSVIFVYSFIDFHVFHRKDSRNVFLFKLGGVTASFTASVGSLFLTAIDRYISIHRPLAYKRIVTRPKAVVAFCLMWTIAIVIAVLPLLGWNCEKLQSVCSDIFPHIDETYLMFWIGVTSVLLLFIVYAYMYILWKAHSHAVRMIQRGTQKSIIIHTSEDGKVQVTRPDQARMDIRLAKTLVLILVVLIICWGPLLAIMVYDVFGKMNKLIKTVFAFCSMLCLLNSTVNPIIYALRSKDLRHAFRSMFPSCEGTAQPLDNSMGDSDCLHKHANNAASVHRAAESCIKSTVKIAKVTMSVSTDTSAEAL

`CNC(=O)CCN(C)c1cc(N2CC(CC(N)=O)C2)n2nc(-c3ccccc3Cl)c(-c3ccc(Cl)cc3)c2n1` [Compound 39, 3-[[7-[3-(2-amino-2-oxo-ethyl)azetidin-1-yl]-2-(2-chlorophenyl)-3-(4-chlorophenyl)pyrazolo[1,5-a]pyrimidin-5-yl]-methyl-amino]-N-methyl-propanamide]: the IC50 at human CB1 receptor [1] stood at 34.4 nM; on human CB1 receptor [2] it was 107 nM.
In the same order, the values of `CCNC(=O)CN(C)c1cc(N2CCC(C)(C(N)=O)CC2)n2nc(-c3ccccc3Cl)c(-c3ccc(Cl)cc3)c2n1` [Compound 46, 1-[2-(2-chlorophenyl)-3-(4-chlorophenyl)-5-[[2-(ethylamino)-2-oxo-ethyl]-methyl-amino]pyrazolo[1,5-a]pyrimidin-7-yl]-4-methyl-piperidine-4-carboxamide] are 3.79 nM and 29.9 nM.
For `CC(C)(O)COc1cc(N2CCN(S(=O)(=O)C(F)(F)F)CC2)n2nc(-c3ccc(C#N)nc3)c(-c3ccc(Cl)cc3)c2n1` [Compound 53, 5-[3-(4-chlorophenyl)-5-(2-hydroxy-2-methyl-propoxy)-7-[4-(trifluoromethylsulfonyl)piperazin-1-yl]pyrazolo[1,5-a]pyrimidin-2-yl]pyridine-2-carbonitrile] the same measures were 1.07 nM and 1.24 nM.
In the same order, the values of `C[C@H](CO)Oc1cc(-c2ccc(C(F)(F)F)nc2)n2nc(-c3ccccc3Cl)c(-c3ccc(Cl)cc3)c2n1` [Compound 71(R)] are 3.08 nM and 12.3 nM.
With `N#Cc1ccc(-c2nn3c(N4CC(C(N)=O)C4)cc(N4CCC[C@H]4CO)nc3c2-c2ccc(Cl)cc2)cn1` [Compound 61, 1-[3-(4-chlorophenyl)-2-(6-cyano-3-pyridyl)-5-[(2S)-2-(hydroxymethyl)pyrrolidin-1-yl]pyrazolo[1,5-a]pyrimidin-7-yl]azetidine-3-carboxamide], the results for the IC50 on human CB1 receptor [1] and at human CB1 receptor [2] were 1.39 nM and 3.65 nM, respectively.
In the same order, the values of `CC(C)Oc1cc(N(C)CCO)nc2c(-c3ccc(Cl)cc3)c(-c3ccccc3Cl)nn12` [Compound 12, 2-[[2-(2-chlorophenyl)-3-(4-chlorophenyl)-7-isopropoxy-pyrazolo[1,5-a]pyrimidin-5-yl]-methyl-amino]ethanol] are 1.69 nM and 16.8 nM.
Take `CC(C)(O)COc1cc(-c2ccc(C(F)(F)F)nc2)n2nc(-c3ccccc3Cl)c(-c3ccc(Cl)cc3)c2n1` [Compound 45, 1-[2-(2-chlorophenyl)-3-(4-chlorophenyl)-7-[6-(trifluoromethyl)-3-pyridyl]pyrazolo[1,5-a]pyrimidin-5-yl]oxy-2-methyl-propan-2-ol]: the IC50 stood at 3.97 nM at human CB1 receptor [1] and 8.61 nM on human CB1 receptor [2].
For the compound `CC(C)(O)COc1cc(N2CCC(C)(C(N)=O)CC2)n2nc(-c3ccccc3Cl)c(-c3ccc(Cl)cc3)c2n1` [Compound 13, 1-[2-(2-chlorophenyl)-3-(4-chlorophenyl)-5-(2-hydroxy-2-methyl-propoxy)pyrazolo[1,5-a]pyrimidin-7-yl]-4-methyl-piperidine-4-carboxamide], the IC50 turned out to be 1.26 nM on human CB1 receptor [1] and 3.51 nM at human CB1 receptor [2].
For `CCOC1(C(N)=O)CCN(c2cc(OCC(C)(C)O)nc3c(-c4ccc(Cl)cc4)c(-c4ccccc4Cl)nn23)CC1` [Compound 42, 1-[2-(2-chlorophenyl)-3-(4-chlorophenyl)-5-(2-hydroxy-2-methyl-propoxy)pyrazolo[1,5-a]pyrimidin-7-yl]-4-ethoxy-piperidine-4-carboxamide] the same measures were 1.67 nM and 4.73 nM.
On to `CN(CC(C)(C)O)c1cc(N2CCC(C)(C(N)=O)CC2)n2nc(-c3ccccc3Cl)c(-c3ccc(Cl)cc3)c2n1` [Compound 20, 1-[2-(2-chlorophenyl)-3-(4-chlorophenyl)-5-[(2-hydroxy-2-methyl-propyl)-methyl-amino]pyrazolo[1,5-a]pyrimidin-7-yl]-4-methyl-piperidine-4-carboxamide], for which the IC50 was determined as 5.53 nM at human CB1 receptor [1] and 22.8 nM at human CB1 receptor [2].
For `OC[C@@H]1CCCN1c1cc(-c2ccc(C(F)(F)F)nc2)n2nc(-c3ccccc3Cl)c(-c3ccc(Cl)cc3)c2n1` [Compound 8, [(2S)-1-[2-(2-chlorophenyl)-3-(4-chlorophenyl)-7-[6-(trifluoromethyl)-3-pyridyl]pyrazolo[1,5-a]pyrimidin-5-yl]pyrrolidin-2-yl]methanol] the same measures were 1.8 nM and 4.41 nM.
For `O=S1(=O)CCC(Nc2cc(N3CCC[C@H]3CO)nc3c(-c4ccc(Cl)cc4)c(-c4ccccc4Cl)nn23)CC1` [Compound 11, [(2S)-1-[2-(2-chlorophenyl)-3-(4-chlorophenyl)-7-[(1,1-dioxothian-4-yl)amino]pyrazolo[1,5-a]pyrimidin-5-yl]pyrrolidin-2-yl]methanol] the same measures were 0.481 nM and 1.33 nM.
For `CN(CCC(N)=O)c1cc(N2CC(CC(N)=O)C2)n2nc(-c3ccccc3Cl)c(-c3ccc(Cl)cc3)c2n1` [Compound 24, 3-[[7-[3-(2-amino-2-oxo-ethyl)azetidin-1-yl]-2-(2-chlorophenyl)-3-(4-chlorophenyl)pyrazolo[1,5-a]pyrimidin-5-yl]-methyl-amino]propanamide] the same measures were 14.6 nM and 94.6 nM.
With `O[C@@H]1CCN(c2cc(-c3ccc(C(F)(F)F)nc3)n3nc(-c4ccccc4Cl)c(-c4ccc(Cl)cc4)c3n2)C1` [Compound 72(R)], the figures for the IC50 at human CB1 receptor [1] and at human CB1 receptor [2] were 1.33 nM and 3.33 nM, respectively.
In the same order, the values of `COc1ccc(-c2cc(N3CCC[C@H]3CO)nc3c(-c4ccc(Cl)cc4)c(-c4ccc(C#N)cc4)nn23)cc1` [Compound 50, 4-[3-(4-chlorophenyl)-5-[(2S)-2-(hydroxymethyl)pyrrolidin-1-yl]-7-(4-methoxyphenyl)pyrazolo[1,5-a]pyrimidin-2-yl]benzonitrile] are 2.21 nM and 4.79 nM.
In the same order, the values of `CCNC(=O)CN(C)c1cc(N2CC(CC(N)=O)C2)n2nc(-c3ccccc3Cl)c(-c3ccc(Cl)cc3)c2n1` [Compound 31, 2-[1-[2-(2-chlorophenyl)-3-(4-chlorophenyl)-5-[[2-(ethylamino)-2-oxo-ethyl]-methyl-amino]pyrazolo[1,5-a]pyrimidin-7-yl]azetidin-3-yl]acetamide] are 114 nM and 418 nM.
For `CCNC(=O)CN(C)c1cc(N2CC[C@H](CC(N)=O)C2)n2nc(-c3ccccc3Cl)c(-c3ccc(Cl)cc3)c2n1` [Compound 36, 2-[(3R)-1-[2-(2-chlorophenyl)-3-(4-chlorophenyl)-5-[[2-(ethylamino)-2-oxo-ethyl]-methyl-amino]pyrazolo[1,5-a]pyrimidin-7-yl]pyrrolidin-3-yl]acetamide], the IC50 at human CB1 receptor [1] stood at 150 nM; on human CB1 receptor [2], 325 nM.
In the same order, the values of `OC[C@@H]1CCCN1c1cc(N2CCC(C(F)(F)F)CC2)n2nc(-c3ccccc3Cl)c(-c3ccc(Cl)cc3)c2n1` [Compound 2, [(2S)-1-[2-(2-chlorophenyl)-3-(4-chlorophenyl)-7-[4-(trifluoromethyl)-1-piperidyl]pyrazolo[1,5-a]pyrimidin-5-yl]pyrrolidin-2-yl]methanol] are 1.28 nM and 5.27 nM.

(Values after patent publication US20250145628A1, “PYRAZOLOPYRIMIDINES, COMPOSITIONS COMPRISING THEM AND USES THEREOF” (Novo Nordisk A/S, priority 2022, published 2025).)
